Read-outs that look alike come from different tables or passages of the source.
How the values were obtained:
IKBKB (IKK-β) = molecular target: T1, IKBKB (IKK-β) (Homo sapiens, UniProt O14920); test: IKKβ enzyme assay (Z'-LYTE, Invitrogen); format: biochemical
T1 construct: purchased Invitrogen (Paisley, UK)
T1 sequence (O14920 1-756): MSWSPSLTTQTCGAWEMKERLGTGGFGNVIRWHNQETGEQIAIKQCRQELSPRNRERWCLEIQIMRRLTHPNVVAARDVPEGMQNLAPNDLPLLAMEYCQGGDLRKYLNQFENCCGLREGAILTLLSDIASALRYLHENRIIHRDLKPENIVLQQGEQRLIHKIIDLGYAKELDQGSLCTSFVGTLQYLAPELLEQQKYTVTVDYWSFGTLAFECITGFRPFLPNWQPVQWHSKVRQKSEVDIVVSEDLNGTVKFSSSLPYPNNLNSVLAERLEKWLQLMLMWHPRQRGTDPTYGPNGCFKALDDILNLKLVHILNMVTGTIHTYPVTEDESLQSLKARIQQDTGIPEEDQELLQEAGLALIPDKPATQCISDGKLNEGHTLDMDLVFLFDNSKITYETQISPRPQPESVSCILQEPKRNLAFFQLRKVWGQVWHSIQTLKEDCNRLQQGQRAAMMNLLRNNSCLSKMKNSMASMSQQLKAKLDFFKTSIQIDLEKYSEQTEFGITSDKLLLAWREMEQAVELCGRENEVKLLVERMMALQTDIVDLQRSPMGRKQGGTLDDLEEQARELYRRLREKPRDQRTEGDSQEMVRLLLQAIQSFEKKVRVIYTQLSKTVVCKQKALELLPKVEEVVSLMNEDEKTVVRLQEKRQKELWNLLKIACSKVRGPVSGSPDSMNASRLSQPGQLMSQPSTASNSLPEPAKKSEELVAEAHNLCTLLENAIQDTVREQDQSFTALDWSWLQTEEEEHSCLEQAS
Method: The ability of compounds to inhibit IKK-β kinase activity was measured in an assay performed by Invitrogen (Paisley, UK). The Z′-LYTE™ biochemical assay employs a fluorescence-based, coupled-enzyme format and is based on the differential sensitivity of phosphorylated and non-phosphorylated peptides to proteolytic cleavage. The peptide substrate is labelled with two fluorophores—one at each end—that make up a FRET pair. In the primary reaction, the kinase transfers the gamma-phosphate of ATP to a single serine or threonine residue in a synthetic FRET-peptide. In the secondary reaction, a site-specific protease recognizes and cleaves non-phosphorylated FRET-peptides. Phosphorylation of FRET-peptides suppresses cleavage by the Development Reagent. Cleavage disrupts FRET between the donor (i.e. coumarin) and acceptor (i.e. fluorescein) fluorophores on the FRET-peptide, whereas uncleaved, phosphorylated FRET-peptides maintain FRET. A […] method, which calculates the ratio (the Emission Ratio) of donor emission to acceptor emission after excitation of the donor fluorophore at 400 nm, is used to quantitate reaction progress.
The final 10 μL Kinase Reaction consists of 0.9-8.0 ng IKBKB (IKK-β), 2 μM Ser/Thr 05 Peptide and ATP in 50 mM HEPES pH 7.5, 0.01% BRIJ-35, 10 mM MgCl2, 1 mM EGTA. The assay is performed at an ATP concentration at, or close to the Km. After the 60 minute Kinase Reaction incubation at room temperature, 5 μL of a 1:128 dilution of Development Reagent is added. The assay plate is incubated for a further 60 minutes at room temperature and read on a fluorescence plate reader.
Duplicate data points are generated from a ⅓ log dilution series of a stock solution of test compound in DMSO. Nine dilutions steps are made from a top concentration of 10 μM, and a ‘no compound’ blank is included. Data is collected and analysed using XLfit software from IDBS. The dose response curve is curve fitted to model number 205 (sigmoidal dose-response model). From the curve generated, the concentration giving 50% inhibition is determined and reported.

THP-1 cells = test: LPS-stimulation of THP-1 cells, TNF-α release; format: cell-based; details: Homo sapiens, LPS 1 μg/ml, 6 hours, IC50 range, read-out: Inhibitor activity versus THP-1 TNFα release
Method: THP-1 cells were plated in 100 μl at a density of 4×10^4 cells/well in V-bottomed 96 well tissue culture treated plates and incubated at 37° C. in 5% CO2 for 16 hours. 2 hours after the addition of the inhibitor in 100 μl of tissue culture media, the cells were stimulated with LPS (E coli strain 005:B5, Sigma) at a final concentration of 1 μg/ml and incubated at 37° C. in 5% CO2 for 6 hours. TNF-α levels were measured from cell-free supernatants by sandwich ELISA (R&D Systems #QTA00B).

human whole blood = test: LPS-stimulation of human whole blood, TNF-α release; format: cell-based
Method: Whole blood was taken by venous puncture using heparinised vacutainers (Becton Dickinson) and diluted in an equal volume of RPMI1640 tissue culture media (Sigma). 100 μl was plated in V-bottomed 96 well tissue culture treated plates. 2 hours after the addition of the inhibitor in 100 μl of RPMI1640 media, the blood was stimulated with LPS (E coli strain 005:B5, Sigma) at a final concentration of 100 ng/ml and incubated at 37° C. in 5% CO2 for 6 hours. TNF-α levels were measured from cell-free supernatants by sandwich ELISA (R&D Systems #QTA00B). Human heparinised blood (17-IU/ml) was diluted with an equal volume of RPMI-1640 and then sub-aliquoted into 96 well microtitre wells (100 µl/well). Inhibitors of IKKβ that had been serially diluted in RPMI-1640 were added to the wells (100 µl/well) to give a range of final concentrations (5-10000 nM). After incubation for 2 hours at 37° C., TNF[…] production was stimulated for 6 hours at 37° C. by the addition of 10 µl of LPS (E Coli 055:B5) to give a final concentration of 100 ng/ml. Plates were then centrifuged for 3 minutes at 800 g and TNF[…] present in the supernatant then measured, using a QuantiGlo Chemiluminescent ELISA (R&D Systems). The human whole blood assay measures the ability of the compounds to inhibit the LPS stimulated production of TNF alpha in human blood cells mediated by IKKβ in a physiologically relevant setting.

[1] = ATP at or close to Km, IC50 range, read-out: Inhibitor activity versus IKKβ
[2] = LPS 100 ng/ml, 6 hours, IC50 range, read-out: Inhibitor activity versus human whole blood TNFα release
[3] = read-out: Enzyme IC50 (nM) vs IKKβ
[4] = LPS stimulated TNF alpha production, read-out: IC50 in Human whole blood

Compound | IC50 (IKBKB (IKK-β); [1]) | IC50 (THP-1 cells) | IC50 (human whole blood; [2]) | IC50 (IKBKB (IKK-β); [3]) | IC50 (human whole blood; [4])
CC(C)(NCc1ccc(-c2cc(C(N)=O)c(NC(N)=O)s2)cc1)C(=O)OC1CCCC1 [Example 5, Cyclopentyl N-{4-[4-carbamoyl-5-(carbamoylamino)-2-thienyl]benzyl}-2-methylalaninate] | < 500 nM | > 1000 nM | 500 to 1000 nM | – | –
CC(C)(NCc1ccc2cc(-c3cc(C(N)=O)c(NC(N)=O)s3)ccc2c1)C(=O)O [Example 11, N-({6-[4-carbamoyl-5-(carbamoylamino)-2-thienyl]-2-naphthyl}methyl)-2-methylalanine] | < 500 nM | – | – | – | –
CC(C)(NCc1cccc(-c2cc(C(N)=O)c(NC(N)=O)s2)c1)C(=O)OC1CCCC1 [Example 1, Cyclopentyl N-{3-[4-carbamoyl-5-(carbamoylamino)-2-thienyl]benzyl}-2-methylalaninate] | < 500 nM | < 500 nM | < 500 nM | 132 nM | 140 nM
CC(C)(NCc1cccc(-c2cc(C(N)=O)c(NC(N)=O)s2)c1)C(=O)O [Example 8, N-{3-[4-Carbamoyl-5-(carbamoylamino)-2-thienyl]benzyl}-2-methylalanine] | < 500 nM | – | – | – | –
CC(C)(NC(=O)c1cccc(-c2cc(C(N)=O)c(NC(N)=O)s2)c1)C(=O)OC1CCCC1 [Example 3, Cyclopentyl N-{3-[4-carbamoyl-5-(carbamoylamino)-2-thienyl]benzoyl}-2-methylalaninate] | < 500 nM | > 1000 nM | > 1000 nM | – | –
CCC(CC)(NCc1cccc(-c2cc(C(N)=O)c(NC(N)=O)s2)c1)C(=O)OC1CCCC1 [Example 4, Cyclopentyl 2-({3-[4-carbamoyl-5-(carbamoylamino)-2-thienyl]benzyl}amino)-2-ethylbutanoate] | > 1000 nM | < 500 nM | > 1000 nM | – | –
CC(C)(NCCc1cccc(-c2cc(C(N)=O)c(NC(N)=O)s2)c1)C(=O)OC1CCCC1 [Example 6, Cyclopentyl N-(2-{3-[4-carbamoyl-5-(carbamoylamino)-2-thienyl]phenyl}ethyl)-2-methylalaninate] | 500 to 1000 nM | 500 to 1000 nM | < 500 nM | – | –
CC(C)(NC(=O)c1cccc(-c2cc(C(N)=O)c(NC(N)=O)s2)c1)C(=O)O [Example 9, N-{3-[4-Carbamoyl-5-(carbamoylamino)-2-thienyl]benzoyl}-2-methylalanine] | < 500 nM | – | – | – | –
CC(C)(NCCc1cccc(-c2cc(C(N)=O)c(NC(N)=O)s2)c1)C(=O)O [Example 10, N-(2-{3-[4-carbamoyl-5-(carbamoylamino)-2-thienyl]phenyl}ethyl)-2-methylalanine] | < 500 nM | – | – | – | –
CC(C)(C)OC(=O)C(C)(C)NCc1cccc(-c2cc(C(N)=O)c(NC(N)=O)s2)c1 [Example 2, tert-Butyl N-{3-[4-carbamoyl-5-(carbamoylamino)-2-thienyl]benzyl}-2-methylalaninate] | < 500 nM | < 500 nM | > 1000 nM | – | –
CC(C)(NCc1ccc2cc(-c3cc(C(N)=O)c(NC(N)=O)s3)ccc2c1)C(=O)OC1CCCC1 [Example 7, Cyclopentyl N-({6-[4-carbamoyl-5-(carbamoylamino)-2-thienyl]-2-naphthyl}methyl)-2-methylalaninate] | > 1000 nM | < 500 nM | > 1000 nM | – | –
NC(=O)Nc1sc(-c2ccccc2)cc1C(N)=O [Compound I, reference compound] | – | – | – | 5 nM | 489 nM

Source: patent publication US20110046210A1, “SUBSTITUTED THIOPENECARBOXAMIDES AS IKK-BETA SERINE-, THREONINE-PROTEIN KINASE INHIBITORS” (CHROMA THERAPEUTICS LTD., priority 2008, published 2011)
